In brackets after ≈: the same amount, converted by molar mass.

For this data set the following is noted: buffer; pH 7.4; 200.0 µM.
Regarding `O=C(Nc1cccc(Cl)c1)Nc1sccc1-c1nc2ccccc2s1`, the solubility (kinetic) – broadly, the concentration staying in solution when a stock, usually in DMSO, is diluted into the medium – amounted to 4.5 µg/mL (≈ 11.7 µM). As for `CNS(=O)(=O)c1cc(Cl)ccc1Sc1ccccc1C(=O)O`, the figure is greater than 53.7 µg/mL; as for `CCN(C(=O)COc1ccc(C)cc1OC)c1cccc2ccccc12`, 33.7 µg/mL (≈ 96.4 µM). For `COC(=O)c1cccnc1NC(=S)NC(C)C` the value was 7.1 µg/mL (≈ 28 µM); for `Cc1onc(-c2c(Cl)cccc2Cl)c1CO/N=C(\C#N)c1c(Cl)cccc1Cl`, less than 0.3 µg/mL. Consider `O=c1sc2ccccc2c(N2CCCCC2)c1[N+](=O)[O-]`, for which the solubility (kinetic) turned out to be 20.4 µg/mL (≈ 70.3 µM).

`CC(=O)c1c(C)[nH]c(C(=O)NCC2CCCCC2)c1C`: the solubility (kinetic) is 23.4 µg/mL (≈ 84.7 µM).

Regarding `O=C1CSC(=Nc2ccc(Cl)cc2)N1Cc1ccco1`, the kinetic solubility was determined as 10.9 µg/mL (≈ 35.5 µM). As for `CC(=O)Oc1ccc(C(=O)Nc2cc(C)on2)cc1`, the kinetic solubility worked out at 38.1 µg/mL (≈ 146 µM).

For the compound `COc1ccccc1C(=O)CN1C(=O)NC2(CCCc3ccccc32)C1=O` (centres undefined), the solubility (kinetic) came out at 8.4 µg/mL (≈ 23.1 µM). For `COc1ccc(N=C2NC(=O)/C(=C\c3ccco3)S2)cc1` the value was 2.6 µg/mL (≈ 8.66 µM).

For the compound `O=[N+]([O-])c1cccc(C(O)C23CN4CN(CN(C4)C2)C3)c1` (centres undefined), the solubility (kinetic) is greater than 43.5 µg/mL. Compound `COc1ccc(-c2csc(Nc3cc(C)ccn3)n2)cc1C` yielded a solubility (kinetic) of less than 0.2 µg/mL. As for `O=C(Nc1cccc(Br)c1)C1CCCC1`, the figure is greater than 40.2 µg/mL; as for `O=C(NCC(c1ccco1)N1CCN(c2ccccc2F)CC1)c1cccs1` (centres undefined), 54.3 µg/mL (≈ 136 µM); as for `O=C1CCC(C(=O)OCC(=O)Nc2ccc(Cl)cc2C(F)(F)F)=NN1`, greater than 56.7 µg/mL.

For `Cc1cccc(OCCCN2CCOCC2)c1`, the solubility (kinetic) worked out at 28 µg/mL (≈ 119 µM). As for `CCN(CC)C(=O)Cn1cc(C(=O)C2CC2)c2ccccc21`, the figure is greater than 44.8 µg/mL; as for `COc1ccc(C2C(C(C)=O)=C(O)C(=O)N2c2ccc(C)cc2)cc1` (centres undefined), greater than 50.6 µg/mL; as for `Cc1ccsc1C(=O)OCC(=O)NCCc1ccccc1`, 10.4 µg/mL (≈ 34.3 µM). For `CNc1ccc(C(=O)OCC(=O)NC(=O)NC2CCCC2)cc1[N+](=O)[O-]` the value was 1.7 µg/mL (≈ 4.67 µM); for `CC(c1ccccc1)N1C(=O)c2cccnc2C1=O` (centres undefined), 32.6 µg/mL (≈ 129 µM). For `COC(=O)c1c(C)oc(C)c1S(=O)(=O)N1CCOCC1` the value was 40.9 µg/mL (≈ 135 µM); for `CCn1c(SCC(=O)NC(C)(C)C)nnc1-c1ccncc1`, greater than 47.9 µg/mL. Take `CCNS(=O)(=O)c1ccc(NC(=O)Nc2cc(C)ccc2OC)cc1`: the kinetic solubility was determined as 0.9 µg/mL (≈ 2.48 µM). Regarding `Cl.NS(=O)(=O)c1ccc(CCNC/C=C/c2ccccc2)cc1`, the kinetic solubility was greater than 52.9 µg/mL. Regarding `CC(NC(=O)Nc1ccc(Cl)cc1)c1ccccc1` (centres undefined), the solubility (kinetic) amounted to 1.9 µg/mL (≈ 6.92 µM). As for `O=C(NCCc1ccccc1)c1ccc(-c2ccc(F)cc2)o1`, the figure is 7.1 µg/mL (≈ 23 µM); as for `Cc1cc(NC(=O)COC(=O)C2CSC3(C)CCC(=O)N23)ccc1Br` (centres undefined), greater than 64.1 µg/mL; as for `Cc1nc(C)c(C)nc1C`, less than 0.1 µg/mL. As for `COc1ccc(Br)cc1/C=C(\C(=O)O)c1ccc(S(=O)(=O)N2CCCC2)s1`, the figure is greater than 70.9 µg/mL; as for `C=CCN1C(=O)c2ccccc2C1(O)Cc1ccccc1` (centres undefined), 36.6 µg/mL (≈ 131 µM); as for `Cc1cccc(C)c1N(CC(=O)N1CCCC1)S(C)(=O)=O`, 35.2 µg/mL (≈ 113 µM). As for `CCN1CNC(=S)N(c2ccccc2C)C1`, the figure is greater than 35.3 µg/mL; as for `Cc1cc(C)c(S(=O)(=O)NCc2ccccn2)cc1C`, greater than 43.6 µg/mL. For `O=C(Nc1ccc2oc(-c3ccccc3F)nc2c1)c1ccccc1F`, the kinetic solubility is less than 0.4 µg/mL. As for `NC(=O)NC(=O)CSc1ccccc1`, the figure is greater than 31.5 µg/mL; as for `COc1ccc(CN(C)C(=O)Cc2c[nH]c3ccccc23)cc1`, 30.4 µg/mL (≈ 98.6 µM); as for `CCCc1cc(=O)[nH]c(SCC(=O)NCCC2=CCCCC2)n1`, 48.2 µg/mL (≈ 144 µM). In turn, `CC[C@H](C)[C@H](NC(=O)c1ccc(Cl)cc1)C(=O)OCC(=O)c1c(N)n(C)c(=O)n(C)c1=O` came in with a solubility (kinetic) of 27.7 µg/mL (≈ 59.6 µM). As for `CC(=O)Nc1ccc(C=C(C(C)=O)C(C)=O)cc1`, the figure is greater than 36.8 µg/mL; as for `Cc1cccc(C(=O)Nc2ccc3c(c2)nc(C)n3C)c1`, 5.5 µg/mL (≈ 19.7 µM). The compound `CCC(OC(=O)c1ccco1)C(=O)NCc1ccc2c(c1)OCO2` (centres undefined) gave a solubility (kinetic) of 46.5 µg/mL (≈ 140 µM). This solubility kinetic is about 8.5-fold higher than that of the compound before. For `Cc1ccccc1C(=O)NC1CCCCCCC1` the value was 30.2 µg/mL (≈ 123 µM); for `N#C/C(=C\c1ccccc1OCC(=O)O)c1nc2ccccc2[nH]1`, greater than 47.9 µg/mL; for `CC(=O)Nc1ccc(C2NC(=O)CCC2[N+](=O)[O-])cc1` (centres undefined), 31.7 µg/mL (≈ 114 µM).

On to `CCNS(=O)(=O)c1ccc(NC(=S)N2CCc3ccccc32)cc1`, for which the solubility (kinetic) was determined as 1.2 µg/mL (≈ 3.32 µM). Compared with the last compound, the solubility kinetic is about 26-fold lower.

Compound `O=C(Nc1ccccn1)c1ccc(C(=O)Nc2ccccn2)cc1` showed a solubility (kinetic) of 0.5 µg/mL (≈ 1.57 µM). As for `Cc1ccc(/C=C/S(=O)(=O)NCCC(=O)NCc2ccccc2F)cc1`, the figure is 9 µg/mL (≈ 23.9 µM); as for `O=C(NC12CC3CC(CC(C3)C1)C2)N1CCN(C2CCCCC2)CC1`, 42.4 µg/mL (≈ 123 µM); as for `Nc1ccc(-c2cnc3ccccc3n2)cc1`, 27.4 µg/mL (≈ 124 µM). For `CCN1CCCC1CNC(=O)CCc1nnc(CCC2CCCCC2)o1` (centres undefined) the value was greater than 54.4 µg/mL. As for `CCOc1cc([N+](=O)[O-])c2nc(N)sc2c1`, the figure is 4.3 µg/mL (≈ 18 µM); as for `CN(C)C(CNC(=O)c1ccccc1C(F)(F)F)c1ccco1` (centres undefined), greater than 48.9 µg/mL. The compound `Cc1ccnc(NC(=O)CNC(=O)c2ccc(C)s2)c1` yielded a kinetic solubility greater than 43.4 µg/mL. For `O=C(Nc1nccs1)C1CCCN1/C=C/C(=O)C(F)(F)F` (centres undefined) the value was 46.1 µg/mL (≈ 144 µM); for `CCOc1cccc(OCCCCn2cnc3ccccc3c2=O)c1`, 3.4 µg/mL (≈ 10 µM); for `COn1c(-c2ccccc2)nc2ncccc21`, greater than 33.8 µg/mL. For `CCc1ccc(/C=C2\SC(N3CCCC3)=NC2=O)cc1` the value was 12.8 µg/mL (≈ 44.7 µM). `CS(=O)(=O)c1ccc(C(=O)Nc2ccccc2Cl)cc1` yielded a kinetic solubility greater than 46.5 µg/mL. As for `O=C(CN1CCCC1c1cccs1)Nc1cc(S(=O)(=O)N2CCCC2)ccc1Cl` (centres undefined), the figure is 1.6 µg/mL (≈ 3.52 µM). Compound `Cc1cccc(OCCNC(=O)CCc2ccccc2)c1` returned a solubility (kinetic) of 34.4 µg/mL (≈ 121 µM). With `Cc1ccc(S(=O)(=O)NC2CC(C)(C)NC(C)(C)C2)cc1C`, the kinetic solubility is greater than 48.7 µg/mL. In turn, `CCOC(=O)C1=C(C)Nc2ccccc2S1` showed a solubility (kinetic) of 17.9 µg/mL (≈ 76.1 µM).

`Cc1ccc(C2=N/C(=C\c3ccc(F)cc3)C(=O)N2)cc1` returned a kinetic solubility of 0.7 µg/mL (≈ 2.5 µM). As for `CC(C(=O)N1CCCC1)N(C)CC(=O)Nc1cccc(F)c1` (centres undefined), the figure is 37 µg/mL (≈ 120 µM); as for `COc1ccc(Nc2ncnc3sc(C)cc23)cc1.Cl`, 14.8 µg/mL; as for `Cc1ccc(N2C(=O)C3C=NNC3C2=O)cc1` (centres undefined), greater than 34.4 µg/mL. As for `COc1ccc(OCC(=O)Nc2nc3cc4c(cc3s2)OCCO4)cc1`, the figure is 4.6 µg/mL (≈ 12.4 µM).

`C=CCC(C=C)[N+]1(CC(=O)OC)CCCCC1.[Br-]` (centres undefined) gave a kinetic solubility greater than 47.7 µg/mL. The compound `COC(=O)c1ccc(N)nc1` came in with a kinetic solubility greater than 22.8 µg/mL. As for `Cc1noc(C)c1C(=O)NC1=NCCS1`, the figure is greater than 33.8 µg/mL. In turn, `CCc1noc(C)c1C(=O)OCC(=O)NC(=O)c1ccccc1` had a solubility (kinetic) greater than 47.4 µg/mL.

Consider `O=S(=O)(CCc1ccncc1)Cc1ccc2c3c(cccc13)CC2`, for which the solubility (kinetic) came to 11.8 µg/mL (≈ 35 µM).

`Cc1ccc(O)c(CNc2nccs2)c1` registered a solubility (kinetic) of 7.4 µg/mL (≈ 33.6 µM). This solubility kinetic lies about 1.6-fold lower than the previous one.

Take `CCNC(=O)NC(=O)CSc1ccc(S(=O)(=O)N2CCOCC2)cn1`: the solubility (kinetic) stood at 56.2 µg/mL (≈ 145 µM).

`Cc1ccn2c(NC(=O)c3ccccc3)c(-c3ccccc3)nc2c1` showed a solubility (kinetic) of 2 µg/mL (≈ 6.11 µM). In the case of `Cc1nc(-c2noc(-c3ccc(Cl)cc3)n2)c(C(F)(F)F)o1`, the kinetic solubility is less than 0.2 µg/mL. For `C#CCOc1ccc(/C=C2/C(=O)ON=C2C)cc1OCC` the value was 27.1 µg/mL (≈ 95 µM). As for `COc1ccc(NC(=O)COC(=O)C2CCC2)cc1Cl`, the figure is 42.8 µg/mL (≈ 144 µM); as for `Cc1nc(-c2cccc(S(=O)(=O)N3CCCCC3)c2)cs1`, 24.3 µg/mL (≈ 75.4 µM); as for `NC(=O)c1ccccc1NC(=O)CC12CC3CC(CC(C3)C1)C2`, 4.1 µg/mL (≈ 13.1 µM). As to `O=C(NCCc1ccccc1F)c1ccc2c(c1)OCCO2`, the solubility (kinetic) was greater than 45.2 µg/mL.

In turn, `CCOc1ccc2nc(NC(=O)CN3CCOCC3)sc2c1` came in with a kinetic solubility greater than 48.2 µg/mL. On to `CC(=O)Nc1c(C(=O)Nc2ccc3c(c2)OCO3)oc2ccccc12`, for which the solubility (kinetic) worked out at 3.2 µg/mL (≈ 9.46 µM). As for `O=C(O)C1C2C=CC(C2)C1C(=O)NCc1ccc(Cl)cc1Cl` (centres undefined), the figure is 45.3 µg/mL (≈ 133 µM); as for `COc1ccc(/C=C/C(=O)Nc2ccc(C)c(S(=O)(=O)N3CCOCC3)c2)cc1`, 7.4 µg/mL (≈ 17.8 µM). For `CCn1c(NC(=O)C(C)C)c(-c2cccs2)c(=O)c2ccccc21` the value was greater than 51.1 µg/mL; for `O=C(NCc1cccc(C(F)(F)F)c1)N1CCN(C(=O)c2ccccc2)CC1`, greater than 58.7 µg/mL. For `Cc1cc(Oc2ccc([N+](=O)[O-])cc2)nc(N2CCOCC2)n1` the value was 0.4 µg/mL (≈ 1.26 µM); for `NC(=S)Nc1ccccc1Br`, greater than 34.7 µg/mL; for `C/C(=C\c1ccccc1F)C(=O)c1c(C)cc(C)[nH]c1=O`, greater than 42.8 µg/mL. For the compound `CCCN(C(=O)/C=C/c1ccc(S(=O)(=O)N(CC)CC)cc1)C1CCS(=O)(=O)C1` (centres undefined), the kinetic solubility is greater than 66.4 µg/mL. Regarding `Cn1cc(Cl)cc(C(=O)Nc2ccccc2)c1=O`, the solubility (kinetic) amounted to 2 µg/mL (≈ 7.61 µM). For `O=C(Nc1cccc(-c2cn3cccnc3n2)c1)Nc1ccccc1F` the value was 1.7 µg/mL (≈ 4.89 µM); for `Cc1ccc(C(=O)COC(=O)c2cnccn2)cc1C`, 38.7 µg/mL (≈ 143 µM).

Regarding `Cl.Nc1nc2cc3ccccc3cc2[nH]c1=O`, the kinetic solubility came out at 5.2 µg/mL. For `O=C(CSc1ccccc1F)NC(=O)c1ccc(Cl)cc1` the value was 8.5 µg/mL (≈ 26.3 µM); for `CC(=O)OCc1c(-c2ccccc2)c2cc([N+](=O)[O-])ccc2n1C`, 0.7 µg/mL (≈ 2.16 µM); for `CNC(=O)Nc1ccc2nc(C)oc2c1`, greater than 30.8 µg/mL. As for `O=C1CC(c2cccs2)Cc2nc(NC(=O)C3CC3)ncc21` (centres undefined), the figure is 45.5 µg/mL (≈ 145 µM); as for `CC1(C)CC(=O)c2cc(NC(=O)c3ccc(F)cc3)c(=O)oc2C1`, 2 µg/mL (≈ 6.07 µM); as for `CC(OC(=O)c1ccc2ccccc2n1)C(=O)c1ccccc1` (centres undefined), greater than 45.8 µg/mL.

Consider `CN1CC(C(=O)c2cccs2)C(c2ccc(Cl)cc2)C1` (centres undefined), for which the kinetic solubility is greater than 45.9 µg/mL.

Values taken from PubChem BioAssay AID1996.
